For the series, the system named is dsDNA. The series can be described thus: Real-time DNA melting assay (PicoGreen/ROX melting curves).
Excerpt: Components of this assay include 1) a reaction vessel free from DNase and RNase, 2) a dsDNA-specific dye, 3) a reference dye 4) dsDNA, and 5) the genotoxicant(s). […] As the sample is heated in the real-time thermocycler, the dsDNA melts becoming single-stranded. Single-stranded DNA no longer supports PicoGreen fluorescence, thus the relative amount of PicoGreen to ROX fluorescence declines proportionately to the loss of DNA base-pairing. As will be understood by the skilled artisan upon reading this disclosure, alternative fluorometric dyes or spectrophotometric dyes can be used in the method of the present invention.
In one embodiment, the raw dsDNA-specific fluorescence is normalized to the corresponding reference fluorescence at each temperature point to correct for decreased dye fluorescence resulting directly from the increasing solution temperature. This normalized fluorescence is then graphed as a function of temperature to produce the melting curve. Initial fluorescence from this curve is used to determine the extent of double-strand breakage. The first derivative of this melting curve is then plotted and used to determine both the initial melting temperature and the melting rate across the entire temperature gradient. […] A schematic representation of the typical melting curves is shown in FIG. 1 wherein, with increasing pH, salinity, or temperature, DNA dissociation increases resulting in a decrease in relative fluorescence.
The ability to detect DNA-damaging agents was first examined under conditions under which only the pharmaceutical agent was allowed to interact with the dsDNA.
(§1) Samples were analyzed using an ABI 7300 real time thermocycler over a temperature range of 4° C. to 99° C. Data is presented as PicoGreen fluorescence normalized to ROX.
as §1
Samples were analyzed over a temperature range of 4° C. to 99° C. using an ABI 7300 real time thermocycler. Data is presented as PicoGreen fluorescence normalized to ROX. […] When single strand breaks are in close proximity, double strand breaks can result.

[1] abbreviates: dsDNA 1,000 ng/ml treated with increasing concentrations of compound, PicoGreen normalized to ROX, 4° C. to 99° C.

The values below come from patent US8927463B2, “Sensitive high throughput method for DNA damage and repair” (priority 2013, dated 2015).

Entries after “also recorded” stand apart in the source; their conditions may differ. Like-named read-outs stand apart in the source and are kept apart here.

Consider `CC[C@H](c1ccc(O)cc1)[C@@H](CC)c1ccc(O)cc1` [hexestrol], for which the initial melting temperature entry was “decrease in the initial melting temperature”.

With `CC[C@@]1(O)C(=O)OCc2c1cc1n(c2=O)Cc2cc3ccccc3nc2-1` [camptothecin], the “effect on DNA melting curves” value (dsDNA 1,000 ng/ml treated with non-genotoxic concentrations, PicoGreen normalized to ROX, 4° C. to 99° C.) is on record as “lack of effect; also recorded: does not alter DNA melting”.

For the compound `O=C1C(=O)c2ccccc2-c2ccccc21` [phenanthrenequinone], the initial melting temperature result (dsDNA 1,000 ng/ml treated with increasing concentrations of compound, PicoGreen fluorescence normalized to ROX, 4° C. to 99° C.) is “increase in the initial melting temperature”.

Turning to `C[C@]12CC[C@@H]3c4cc(O)c(O)cc4CC[C@H]3[C@@H]1CC[C@@H]2O` [2-hydroxyestradiol], under setting [1], the initial fluorescence result was “increase in initial fluorescence” and the initial melting slope result was “increase in initial melting slope”.
